Measured values reported in patent US20110117195A1, “METHOD FOR IMPROVING MYOCARDIAL INFARCTION BY INTRAMYOCARDIAL OR TRANSENDOCARDIAL INJECTION OF PEPTIDE NANOFIBERS” (National Cheng Kung University, priority 2009, published 2011).

How the values were obtained:
Type in all cases: in vivo
[1] = tested on: Lanyu mini-pig models of experimental myocardial infarction (MI); experiment: Cardiac catheterization (hemodynamic parameters) after coronary artery ligation in mini-pigs
Method: (§1) Sexually matured Lanyu mini-pigs (about 5 months old, body weight: 21.8±3.1 kg), were divided into 3 groups: the first group is sham operation, suturing was performed without ligation (n=4); the second group is mid-left coronary artery ligation (for simulating myocardial infarction, MI) immediately followed with injection of normal saline solution (MI+NS, n=4); and the third group is mid-left coronary artery ligation immediately followed with injection of 1% peptide nanofibers solution (MI+NFs, n=5) in the entire infarcted area with a total of 2 ml NFs divided by 40 delivery sites (50 ul for each site), wherein the sequence of peptide NFs is AcN-RARADADARARADADA-NH2. Cardiac functions were assessed by echocardiography immediately after MI and together with cardiac catheterization 4 weeks later.
(§2) In the preferred embodiment of the present invention, the peptide nanofibers solution contains peptide nanofibers which can form a biologically compatible peptide hydrogel, wherein the biologically compatible peptide hydrogel is prepared by: dissolving powders of the self-assembling peptide nanofibers in a buffer solution, such as pH 7.4 phosphate buffered saline (PBS) solution; and mixing the powders of the self-assembling peptide nanofibers with the buffer solution by sonication (100 W, 10 mins), so as to obtain a hydrogel solution of the biologically compatible peptide hydrogel (i.e. the peptide nanofibers solution), wherein the percentage of the self-assembling peptide nanofibers in the solution can be 0.1-10% by weight of the solution, preferably 0.5-5% by weight, and more preferably 1.0% by weight; and wherein the volume of the solution of the biologically compatible peptide hydrogel is preferably 0.1-10 ml, and more preferably 2 ml. In the embodiment, the percentage of the self-assembling peptide nanofibers in the solution is 1.0% by weight, and the volume of the solution of the biologically compatible peptide hydrogel is 2 ml. Meanwhile, the buffer solution (PBS) is added with monovalent metal cation compound of a concentration sufficient to promote the self-assembly of the self-assembling peptide nanofibers, wherein the monovalent metal cation is selected from the group consisting of: lithium (Li^+), sodium (Na^+) and potassium (K^+). In the embodiment, the monovalent metal cation compound is sodium […].
(§3) Besides, the pharmaceutical composition of the second and third groups is injected to a plurality of delivery sites in the entire infarcted area of myocardium tissue, respectively, wherein the number of the delivery sites is preferably ranged between 10 and 100, and more preferably 40, without limitation thereto. The plurality of delivery sites in the entire infarcted area is advantageous to increase the distribution density to support materials (e.g. peptide nanofibers). In addition, the infarcted area of myocardium tissue is preferably a mid-left portion of myocardium tissue of an injured heart with myocardial infarction, but also can be any infarcted area of the heart. The self-assembling peptide nanofibers (AcN-RARADADARARADADA-NH2) are 16 amino acids in length, but also can be 8-200 amino acids in length, and preferably 12-32 amino acids in length. […]

[2] = tested on: Lanyu mini-pig models of experimental myocardial infarction (MI); experiment: Echocardiography after coronary artery ligation in mini-pigs
Method: as §1, §2, §3

[3] = tested on: Lanyu mini-pig models of experimental myocardial infarction (MI); experiment: Immunohistological index (myocardial capillary density) after coronary artery ligation in mini-pigs
Method: as §1, with “later. […]” for “later.”

[4] = Table 1, 28 days after infarction, 2 ml intramyocardial in 40 sites, in mmHg/s (unit assumed)
[5] = Table 1, 28 days after infarction, 2 ml intramyocardial in 40 sites
[6] = one month after MI, P<0.01 vs MI+NS

AcN-RARADADARARADADA-NH2 (Ac-RARADADARARADADA-NH2) [MI + NFs, self-assembling peptide nanofibers forming a hydrogel]
Emax (maximal chamber elasticity) ([1]; Table 1, 28 days after infarction, 2 ml intramyocardial in 40 sites, in mmHg/mL (unit assumed)): 2.80 ± 1.43 | +dP/dt Max [1, 4]: 1458 ± 154 | −dP/dt Max [1, 4]: −1850 ± 94 | diastolic function and ventricular remodeling ([1]; one month after MI, end-diastolic and end-systolic volumes, −dP/dt Max, Emax): significantly improved | systolic function (ejection fraction and +dP/dt Max) compared to the (MI+NS) group ([1]; one month after MI, no significant difference): only modest improvement | E.F. (ejection fraction) [2, 5]: 47 ± 8 | IVS-D (thickness of inter-ventricular septum, diastolic) [2, 5]: 0.6 ± 0.12 cm | IVS-S (thickness of inter-ventricular septum, systolic) [2, 5]: 0.7 ± 0.13 cm | thickness of inter-ventricular septum on diastolic (IVS-D) phase [2, 6]: 0.6 ± 0.12 cm | thickness of inter-ventricular septum on systolic (IVS-S) phase [2, 6]: 0.7 ± 0.13 cm | M.C.D. (myocardial capillary density) [3, 5]: 286 ± 179 number/mm^2 | myocardial capillary density (M.C.D.) ([3]; one month after MI, in words): significantly increased
